Patent US20070128217A1 (priority 2003, published 2007)

Key:
[1] = tested on: rabbit serum obtained by immunizing a rabbit with the SARS-CoV strain Frankfurt 1; type: binding; set-up: Binding of a rabbit serum to linear peptides / Binding of a rabbit serum to looped peptides / Rabbit serum linear peptides / Rabbit serum looped peptides / Binding of a rabbit serum to linear peptides of protein N of SARS-CoV Urbani (Rabbit serum linear peptides) / Binding of a rabbit serum to looped/cyclic peptides of protein N of SARS-CoV Urbani (Rabbit serum looped peptides): unit not given here
[2] = tested on: antibodies in sera from SARS patients (sera 1a, 1b, 2, 6, 37, 62, London, SARS-yellow, SARS-green); type: binding, human; set-up: Binding of serum 6 to linear peptides of protein X1 of SARS-CoV Urbani / Binding of serum 37 to linear peptides of protein X1 of SARS-CoV Urbani / Binding of serum 6 to looped/cyclic peptide (PEPSCAN-ELISA) / Binding of serum 37 to looped/cyclic peptide (PEPSCAN-ELISA) / Binding of serum 37 to looped/cyclic peptides of protein X1 of SARS-CoV Urbani / Binding of serum 6 to linear peptides of protein X2 / Binding of serum 37 to linear peptides of protein X2 / Binding of serum 37 to looped/cyclic peptides of protein X2 of SARS-CoV Urbani / Binding of serum 6 to linear peptides of protein M of SARS-CoV Urbani / Binding of serum 37 to linear peptides of protein M of SARS-CoV Urbani / Binding of serum 6 to looped/cyclic peptides of protein M of SARS-CoV Urbani / Binding of serum 37 to looped/cyclic peptides of protein M of SARS-CoV Urbani / Binding of serum 6 to linear peptides of protein X3 of SARS-CoV Urbani / Binding of serum 37 to linear peptides of protein X3 of SARS-CoV Urbani / Binding of serum 37 to looped/cyclic peptides of protein X3 of SARS-CoV Urbani / Binding of serum 6 to linear peptides of protein X4 of SARS-CoV Urbani / Binding of serum 37 to linear peptides of protein X4 of SARS-CoV Urbani / Binding of serum 37 to looped/cyclic peptides of protein X4 of SARS-CoV Urbani / Binding of serum 6 to linear peptides of protein X5 of SARS-CoV Urbani / Binding of serum 37 to linear peptides of protein X5 of SARS-CoV Urbani / Binding of serum 37 to looped/cyclic peptides of protein X5 of SARS-CoV Urbani / Binding of serum 6 to linear peptides of protein N of SARS-CoV Urbani / Binding of serum 37 to linear peptides of protein N of SARS-CoV Urbani / Binding of serum 6 to linear peptide (PEPSCAN-ELISA) / Binding of serum 1a to looped/cyclic peptides of protein N of SARS-CoV Urbani / Binding of serum 1b to looped/cyclic peptides of protein N of SARS-CoV Urbani / Binding of serum 2 to looped/cyclic peptides of protein N of SARS-CoV Urbani / Binding of serum 6 to looped/cyclic peptides of protein N of SARS-CoV Urbani / Binding of serum 37 to looped/cyclic peptides of protein N of SARS-CoV Urbani / Binding of serum 62 to looped/cyclic peptides of protein N of SARS-CoV Urbani / Binding of serum London to looped/cyclic peptides of protein N of SARS-CoV Urbani / Binding of serum SARS-green to looped/cyclic peptides of protein N of SARS-CoV Urbani: unit not given here
[3] = tested on: control sera (pooled serum of ten healthy LUMC hospital workers; commercial negative donor pooled serum from the Dutch bloodbank); type: binding, human; set-up: Binding of Control serum LUMC to linear peptides / Binding of Control serum Blood-bank to linear peptides / Binding of Control serum LUMC to looped peptides / Binding of Control Serum Blood-Bank to Looped peptides / Binding of Control serum LUMC to linear peptides of the protein M of SARS-CoV Urbani / Binding of Control serum Blood-bank to linear peptides of the protein M of SARS-CoV Urbani / Binding of Control serum LUMC to looped peptides of the protein M of SARS-CoV Urbani / Binding of Control Serum Blood-Bank to Looped peptides of the protein M of SARS-CoV Urbani: unit not given here
[4] = tested on: recombinant human anti-SARS-CoV antibody 03-018; type: binding; set-up: Binding of antibody 03-018 to linear peptides of the N protein of SARS-CoV Urbani / Binding of antibody 03-018 to looped/cyclic peptides of the N protein of SARS-CoV Urbani: unit not given here

Sequence | Binding of a rabbit serum to linear peptides of protein N of SARS-CoV Urbani (Rabbit serum linear peptides) [1] | Binding of a rabbit serum to looped/cyclic peptides of protein N of SARS-CoV Urbani (Rabbit serum looped peptides) [1] | Binding of serum 1a to linear peptides of protein N of SARS-CoV Urbani [2] | Binding of serum 1a to looped/cyclic peptides of protein N of SARS-CoV Urbani [2] | Binding of serum 1b to linear peptides of protein N of SARS-CoV Urbani [2] | Binding of serum 1b to looped/cyclic peptides of protein N of SARS-CoV Urbani [2] | Binding of serum 2 to linear peptides of protein N of SARS-CoV Urbani [2] | Binding of serum 2 to looped/cyclic peptides of protein N of SARS-CoV Urbani [2] | Binding of serum 6 to linear peptides of protein N of SARS-CoV Urbani [2] | Binding of serum 6 to looped/cyclic peptides of protein N of SARS-CoV Urbani [2] | Binding of serum 37 to linear peptides of protein N of SARS-CoV Urbani [2] | Binding of serum 37 to looped/cyclic peptides of protein N of SARS-CoV Urbani [2] | Binding of serum 62 to linear peptides of protein N of SARS-CoV Urbani [2] | Binding of serum 62 to looped/cyclic peptides of protein N of SARS-CoV Urbani [2] | Binding of serum London to linear peptides of protein N of SARS-CoV Urbani [2] | Binding of serum London to looped/cyclic peptides of protein N of SARS-CoV Urbani [2] | Binding of serum SARS-green to looped/cyclic peptides of protein N of SARS-CoV Urbani [2] | Binding of serum SARS-yellow to looped/cyclic peptides of protein N of SARS-CoV Urbani [2] | Binding of antibody 03-018 to linear peptides of the N protein of SARS-CoV Urbani [4] | Binding of antibody 03-018 to looped/cyclic peptides of the N protein of SARS-CoV Urbani [4] | further results
PTVTLLPAADMDDFS | 0.1 | 0.0 | 0.3 | 0.2 | 0.2 | 0.2 | 0.2 | 0.3 | 0.1 | 0.1 | 1.4 | 0.4 | 0.9 | 0.2 | 0.6 | 0.2 | 0.7 | 0.1 | 0.1 | 0.2 | Binding of serum SARS-green to linear peptides of protein N of SARS-CoV Urbani [2]: 1.9; Binding of serum SARS-yellow to linear peptides of protein N of SARS-CoV Urbani [2]: 0.7; Control Serum Blood-Bank Looped peptides [3]: 0.3; Control serum Blood-bank linear peptides [3]: 0.8; Control serum LUMC linear peptides [3]: 0.7; Control serum LUMC looped peptides [3]: 0.3
QASSRSSSRSRGNSR | 0.3 | 1.1 | – | 0.3 | – | 0.2 | – | 0.4 | – | 0.3 | – | 0.5 | – | 0.4 | – | 0.4 | 0.1 | 0.4 | 0.1 | 0.2 | Binding of serum 1a to linear peptide (PEPSCAN-ELISA) [2]: 0.2; Binding of serum 1b to linear peptide (PEPSCAN-ELISA) [2]: 0.1; Binding of serum 2 to linear peptide (PEPSCAN-ELISA) [2]: 0.3; Binding of serum 6 to linear peptide (PEPSCAN-ELISA) [2]: 0.3; Binding of serum 37 to linear peptide (PEPSCAN-ELISA) [2]: 0.6; Binding of serum 62 to linear peptide (PEPSCAN-ELISA) [2]: 0.6; Binding of serum London to linear peptide (PEPSCAN-ELISA) [2]: 0.5; Binding of serum SARS-green to linear peptide (PEPSCAN-ELISA) [2]: 0.2; Binding of serum SARS-yellow to linear peptide (PEPSCAN-ELISA) [2]: 0.6; Binding of Control Serum Blood-Bank to Looped peptides [3]: 0.5; Binding of Control serum Blood-bank to linear peptides [3]: 0.7; Binding of Control serum LUMC to linear peptides [3]: 0.7; Binding of Control serum LUMC to looped peptides [3]: 0.5
QDLIRQGTDYKHWPQ | 0.1 | 0.2 | 0.2 | 0.3 | 0.1 | 0.2 | 0.2 | 0.3 | 0.2 | 0.2 | 0.6 | 0.5 | 0.5 | 0.4 | 0.4 | 0.4 | 0.2 | 0.3 | 0.1 | 0.2 | Binding of serum SARS-green to linear peptides of protein N of SARS-CoV Urbani [2]: 0.2; Binding of serum SARS-yellow to linear peptides of protein N of SARS-CoV Urbani [2]: 0.4; Binding of Control Serum Blood-Bank to Looped peptides [3]: 0.6; Binding of Control serum Blood-bank to linear peptides [3]: 0.7; Binding of Control serum LUMC to linear peptides [3]: 0.6; Binding of Control serum LUMC to looped peptides [3]: 0.5
